Measurements: ChEMBL document CHEMBL1201862, “PubChem BioAssay data set” (2004)
Several values for one entry are separate records, joined by “and”; a condition that tells them apart may be missing. Identical values can stand only once.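 Where inhibition never reached the appropriate level, the endpoint shown equals the highest concentration tested. Otherwise, values were interpolated linearly from a five-concentration, 48-hour dose response in 96-well plates. GI50: concentration for 50% inhibition of growth.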 Activity calls are given as the source filed them. Cut-off read from the data, not from the text of the source: active = GI50 up to about 1.1 µM and inactive = higher. Non-standard residues stand in square brackets, D forms with d. Residues, ends and D or L forms follow the SMILES beside them. ξ: configuration not given here. *: point of attachment. ξF = NC(Cc1ccccc1)C(=O)O; Cbz = O=C(OCc1ccccc1)*; Aib = CC(C)(N)C(=O)O

Legend:
Experiment in all cases: NCI tumour cell line growth inhibition, 48 h
A498 = test system: A498
ACHN = test system: ACHN
CCRF-CEM = test system: CCRF-CEM
COLO 205 = test system: COLO 205
EKVX = test system: EKVX
HCC 2998 = test system: HCC 2998
HCT-116 = test system: HCT-116
HL-60 = test system: HL-60
KM12 = test system: KM12
LOX IMVI = test system: LOX IMVI
MOLT-4 = test system: MOLT-4
Malme-3M = test system: Malme-3M
NCI-H460 = test system: NCI-H460
NCI-H522 = test system: NCI-H522
OVCAR-5 = test system: OVCAR-5
SF-539 = test system: SF-539
SK-MEL-28 = test system: SK-MEL-28
SK-MEL-5 = test system: SK-MEL-5
SNB-19 = test system: SNB-19
OVCAR-4 = test system: OVCAR-4

SMILES | GI50 (A498) | GI50 (ACHN) | GI50 (CCRF-CEM) | GI50 (COLO 205) | GI50 (EKVX) | GI50 (HCC 2998) | GI50 (HCT-116) | GI50 (HL-60) | GI50 (KM12) | GI50 (LOX IMVI) | GI50 (MOLT-4) | GI50 (Malme-3M) | GI50 (NCI-H460) | GI50 (NCI-H522) | GI50 (OVCAR-5) | GI50 (SF-539) | GI50 (SK-MEL-28) | GI50 (SK-MEL-5) | GI50 (SNB-19) | GI50 (OVCAR-4)
C/C(CCOC1CCCCO1)=C(\C)[Si](C)(C)C (centres undefined) | > 100 µM (inactive) | > 100 µM (inactive) | 65.5 µM (inactive) | > 100 µM (inactive) | > 100 µM (inactive) | > 100 µM (inactive) | > 100 µM (inactive) | 93.3 µM (inactive) | > 100 µM (inactive) | > 100 µM (inactive) | 72.8 µM (inactive) | > 100 µM (inactive) | > 100 µM (inactive) | > 100 µM (inactive) | > 100 µM (inactive) | > 100 µM (inactive) | > 100 µM (inactive) | > 100 µM (inactive) | > 100 µM (inactive) | 
CC#CC(O)(C(=O)OC1CCC2CCC1N2C)C1CCCC1 (centres undefined) |  | > 10 µM (inactive) |  | > 100 µM (inactive) | > 100 µM (inactive) | > 100 µM (inactive) | > 100 µM (inactive) |  | > 100 µM (inactive) | > 100 µM (inactive) | > 100 µM (inactive) | > 100 µM (inactive) |  | > 100 µM (inactive) | > 10 µM (inactive) | > 100 µM (inactive) | > 100 µM (inactive) | > 100 µM (inactive) | > 100 µM (inactive) | 
O=C1c2ccccc2C(=O)C1C(c1ccc([N+](=O)[O-])cc1)C1C(=O)c2ccccc2C1=O |  | > 100 µM (inactive) | 32.4 µM (inactive) | > 100 µM (inactive) | > 100 µM (inactive) | > 100 µM (inactive) | 24.3 µM (inactive) | 58.3 µM (inactive) | 90.8 µM (inactive) | 18 µM (inactive) | 36.9 µM (inactive) | > 100 µM (inactive) | > 100 µM (inactive) | 63.4 µM (inactive) | > 100 µM (inactive) | 73.8 µM (inactive) | 29 µM (inactive) | > 100 µM (inactive) | > 100 µM (inactive) | > 100 µM (inactive)
c1cc(CNC2C3CCC(C3)C2c2c[nH]c3ccccc23)cc(CNC2C3CCC(C3)C2c2c[nH]c3ccccc23)c1 (centres undefined) |  | 1.19 µM (inactive) and 1.57 µM (inactive) | 195 nM (active) and 325 nM (active) |  | 1.76 µM (inactive) and 1.58 µM (inactive) | 127 nM (active) and 145 nM (active) |  |  | 596 nM (active) and 759 nM (active) | 555 nM (active) and 232 nM (active) |  | 1.87 µM (inactive) and 1.77 µM (inactive) | 366 nM (active) and 405 nM (active) | 1.12 µM (active) and 1.36 µM (inactive) | 1.84 µM (inactive) and 1.82 µM (inactive) |  |  | 1.85 µM (inactive) and 1.91 µM (inactive) | 1.41 µM (inactive) and 1.39 µM (inactive) | 1.7 µM (inactive) and 1.58 µM (inactive)
COc1ccc(C2SC(=N)Nc3c2c(C)nn3C(=O)c2ccccc2O)cc1 (centres undefined) |  | 0.374 µM (active) | 2.04 µM (inactive) | 8.87 µM (inactive) | 7.38 µM (inactive) | > 10 µM (inactive) | 0.655 µM (active) | 2.58 µM (inactive) | 2.89 µM (inactive) | 3.6 µM (inactive) | 1.81 µM (inactive) | 0.659 µM (active) | 3.72 µM (inactive) | 3.85 µM (inactive) | 8.09 µM (inactive) | 0.27 µM (active) | > 10 µM (inactive) | 2.59 µM (inactive) | > 10 µM (inactive) | 1.9 µM (inactive)
CN(C)CCNc1ccc(NCC[N+](C)(C)Cc2ccc([N+](=O)[O-])cc2)c2c1C(=O)c1ccccc1C2=O | 17.5 µM (inactive) | 12.1 µM (inactive) |  | 7.28 µM (inactive) | > 25 µM (inactive) |  | 10.9 µM (inactive) | 4.28 µM (inactive) | 13.8 µM (inactive) | 15 µM (inactive) | 9.04 µM (inactive) | 22.6 µM (inactive) |  | 8.73 µM (inactive) | > 25 µM (inactive) |  | > 25 µM (inactive) | 12.2 µM (inactive) |  | 
CCOC(=O)N1CCC(=O)C(CNC23CC4CC(CC(C4)C2)C3)C1 (centres undefined) | > 100 µM (inactive) | 17.5 µM (inactive) | 16.9 µM (inactive) | 37.4 µM (inactive) | > 100 µM (inactive) |  |  | 22.2 µM (inactive) | > 100 µM (inactive) | 19 µM (inactive) | 13.9 µM (inactive) | 17.7 µM (inactive) | > 100 µM (inactive) | 16.7 µM (inactive) | > 100 µM (inactive) | > 100 µM (inactive) | 18.2 µM (inactive) | 80.2 µM (inactive) | > 100 µM (inactive) | 15.1 µM (inactive)
CCC(/C(=N/NC(=O)C[N+](C)(C)C)c1ccccc1)C1OC(=O)c2ccccc21 (centres undefined) |  | > 100 µM (inactive) | > 100 µM (inactive) | > 100 µM (inactive) |  | > 100 µM (inactive) | > 100 µM (inactive) | > 100 µM (inactive) | > 100 µM (inactive) | > 100 µM (inactive) | > 100 µM (inactive) | > 100 µM (inactive) | > 100 µM (inactive) | > 100 µM (inactive) | > 100 µM (inactive) | > 100 µM (inactive) | > 100 µM (inactive) | > 100 µM (inactive) | > 100 µM (inactive) | > 100 µM (inactive)
O=C1c2[nH]c3ccc(Br)cc3c2CCN1Cc1ccc(Cl)cc1 | 17.1 µM (inactive) | 10.8 µM (inactive) | 12.3 µM (inactive) | 17.7 µM (inactive) | > 100 µM (inactive) | 14.5 µM (inactive) | 10.4 µM (inactive) | 17.3 µM (inactive) | 14.1 µM (inactive) | 12.5 µM (inactive) |  | 15.3 µM (inactive) |  | 17.9 µM (inactive) | 12.5 µM (inactive) | 10.7 µM (inactive) | 14.7 µM (inactive) | 10.9 µM (inactive) | 15.1 µM (inactive) | 18.6 µM (inactive)
CCOC(=O)c1cn(-c2ccc(Cl)cc2)c(=O)n2c1nc1ccccc12 | > 100 µM (inactive) | > 100 µM (inactive) | > 100 µM (inactive) | > 100 µM (inactive) | > 100 µM (inactive) | > 100 µM (inactive) | > 100 µM (inactive) |  | > 100 µM (inactive) | > 100 µM (inactive) | > 100 µM (inactive) |  | > 100 µM (inactive) |  | > 100 µM (inactive) | > 100 µM (inactive) | > 100 µM (inactive) | > 100 µM (inactive) | > 100 µM (inactive) | > 100 µM (inactive)
O=C(O)CSc1nnc(-c2ccc(O)cc2)[nH]1 | > 100 µM (inactive) | > 100 µM (inactive) | > 100 µM (inactive) | > 100 µM (inactive) | > 100 µM (inactive) | > 100 µM (inactive) | > 100 µM (inactive) | > 100 µM (inactive) | > 100 µM (inactive) |  | > 100 µM (inactive) | > 100 µM (inactive) | > 100 µM (inactive) | > 100 µM (inactive) | > 100 µM (inactive) | > 100 µM (inactive) | > 100 µM (inactive) | > 100 µM (inactive) | > 100 µM (inactive) | > 100 µM (inactive)
CCOc1ccc(/N=N/S(=O)(=O)O)cc1 | > 100 µM (inactive) | > 100 µM (inactive) | > 100 µM (inactive) | > 100 µM (inactive) | > 100 µM (inactive) | > 100 µM (inactive) | > 100 µM (inactive) | > 100 µM (inactive) | > 100 µM (inactive) | > 100 µM (inactive) |  | > 100 µM (inactive) | > 100 µM (inactive) | > 100 µM (inactive) | > 100 µM (inactive) | > 100 µM (inactive) | > 100 µM (inactive) | > 100 µM (inactive) | > 100 µM (inactive) | > 100 µM (inactive)
Cc1c(C(=O)/C=C/c2ccc(Cl)cc2)[n+]([O-])c2ccccc2[n+]1[O-] | 14.2 µM (inactive) | 14.7 µM (inactive) | 5.57 µM (inactive) | 14.1 µM (inactive) | 15.6 µM (inactive) | 11.8 µM (inactive) | 5.93 µM (inactive) | 5.92 µM (inactive) | 10.8 µM (inactive) | 7.28 µM (inactive) | 13.8 µM (inactive) | 19.6 µM (inactive) | 11.3 µM (inactive) | 3.78 µM (inactive) | 15 µM (inactive) | 12.1 µM (inactive) | 17 µM (inactive) |  | 14.4 µM (inactive) | 10.5 µM (inactive)
COc1cc(CC2CCc3nc(N)nc(N)c3C2)cc(OC)c1OC (centres undefined) | 20.7 µM (inactive) | 0.163 µM (active) |  | 1.6 µM (inactive) | 0.701 µM (active) | 0.621 µM (active) | 0.0457 µM (active) | 0.1 µM (active) | 1.18 µM (inactive) | 0.0798 µM (active) | 1.01 µM (active) | 0.851 µM (active) | 0.0571 µM (active) | 0.505 µM (active) | 1.36 µM (inactive) | 0.966 µM (active) | > 36.5 µM (inactive) | 0.0834 µM (active) | > 22.9 µM (inactive) | > 45.6 µM (inactive)
CCOC(=O)CNC(=O)C(Cc1ccccc1)NC(=O)C(C)(C)NC(=O)OCc1ccccc1 (centres undefined) (Cbz-[Aib]-[ξF]-Gly-OEt) | > 100 µM (inactive) | > 100 µM (inactive) | > 100 µM (inactive) | 93.1 µM (inactive) | > 100 µM (inactive) | 43.5 µM (inactive) | > 100 µM (inactive) | 32.9 µM (inactive) |  | 49.4 µM (inactive) | 29.4 µM (inactive) | 18.6 µM (inactive) | > 10 µM (inactive) | 29.8 µM (inactive) | > 100 µM (inactive) |  | 17.9 µM (inactive) | 64.1 µM (inactive) | > 100 µM (inactive) | > 100 µM (inactive)
